Source: patent US5166166A, “3-dicyclohexylaminosydnone imines, process for their preparation and their use” (Cassella Aktiengesellschaft, priority 1990, dated 1992)

System: spiral strips of the pulmonary artery of the guinea-pig
Test: relaxing action on potassium-depolarised, CaCl2-contracted spiral strips of the pulmonary artery (modified method of Godfraind and Kaba and of Schuman et al.)
Format: cell-based
Conditions: for IC50: Cavia porcellus, guinea-pig pulmonary artery strips, 40 mmol/l potassium, contraction by 0.5 mmol/l CaCl2, cumulative addition, average of 4 to 6 vessel strips, read-out: IC50 (concentration of the test substance which inhibits the contraction by 50%); for Duration of action: time needed after addition of the test substance until the starting value is obtained again
Method: The pharmacological action of the compounds of the formula I was determined by a modified method of Godfraind and Kaba (Arch. Int. Pharmacodyn. Ther. 196, (Suppl) 35 to 49, 1972) and of Schuman et al. (Naunyn-Schmiedeberg's Arch. Pharmacol. 289, 409 to 418, 1975). In this connection, spiral strips of the pulmonary artery of the guinea-pig are depolarised with 40 mmol/l of potassium after equilibration in calcium-free Tyrode solution. An addition of 0.5 mmol/l of CaCl2 then induces a contraction. The relaxing action of the test substance is determined by cumulative addition in 1/2 log 10 stepped concentrations. From the concentration-effect curve (abscissa: -log mol/l of test substance, ordinate: % inhibition of the maximum contraction, average value of 4 to 6 vessel strips), the concentration of the test substance is determined which inhibits the contraction by 50% (=IC50, mol/l). The duration of action of the test substance is given by the time which is needed after the addition of the test substance until the starting value is obtained again.

IC50 [nM] | Structure (SMILES) | Duration of action [min]
5000 | CC(C)(C)C(=O)[N-]c1c[n+](N(C2CCCCC2)C2CCCCC2)no1 [N-Pivaloyl-3-dicyclohexylaminosydnone imine] | 310
3000 | COc1ccc(C(=O)[N-]c2c[n+](N(C3CCCCC3)C3CCCCC3)no2)cc1 [N-p-Anisoyl-3-dicyclohexylaminosydnone imine] | 300
1000 | Cl.N=c1c[n+](N2CCOCC2)[n-]o1 [SIN-1, 3Morpholinosydnone imine hydrochloride, reference compound] | 90

The next lines start with the compound.

Structure (SMILES) | IC50 [nM] | Duration of action [min]
Cl.N=c1c[n+](N(C2CCCCC2)C2CCCCC2)[n-]o1 [3-Dicyclohexylaminosydnone imine hydrochloride] | 400 | 270
CCOC(=O)[N-]c1cn(N2CCOCC2)n[o+]1 [Molsidomine, NEthoxycarbonyl-3-morpholinosydnone imine, reference compound] | 300000 | 120
